According to ChEMBL document CHEMBL4665769, “Artemyrianolides A-S, Cytotoxic Sesquiterpenoids from Artemisia myriantha” (J Nat Prod, 2020):

Columns and labels:
Format in all cases: functional, cell-based
[1] = system: HepG2; assay: Cytotoxicity against human HepG2 cells assessed as reduction in cell viability after 48 hrs by MTT assay; details: HepG2, 48 h
[2] = system: Huh-7; assay: Cytotoxicity against human Huh-7 cells assessed as reduction in cell viability after 48 hrs by MTT assay; details: Huh-7, 48 h
[3] = system: SMMC-7721; assay: Cytotoxicity against human SMMC-7721 cells assessed as reduction in cell viability after 48 hrs by MTT assay; details: SMMC-7721, 48 h

SMILES	IC50 [1]	IC50 [2]	IC50 [3]
C=C1C(=O)O[C@@H]2C[C@@]3(C)CCCC(=C)[C@]3(O)C[C@H]12 [TELEKIN]	> 10 µM	> 10 µM	> 10 µM
C=C1C(=O)O[C@H]2C[C@@]3(C)[C@H](O)CCC(=C)[C@]3(O)C[C@H]12	> 10 µM	> 10 µM	> 10 µM
C=C1C(=O)O[C@H]2C/C(C)=C/[C@H](OC(C)=O)C[C@@]3(C)O[C@H]3C[C@H]12	> 10 µM	> 10 µM	> 10 µM
C=C1C[C@@H](OC(C)=O)/C=C(\C)C[C@@H]2OC(=O)C(=C)[C@H]2CC1=O	4.9 µM	4.3 µM	3.1 µM
C=C1C(=O)O[C@@H]2C[C@]3(C)[C@@H](C[C@H]12)[C@H](C)C(=O)[C@@H]1O[C@@H]13	> 10 µM	> 10 µM	> 10 µM
C=C1C(=O)O[C@@H]2C[C@@]3(C)C=CC(=O)C(C)=C3C[C@H]12	> 10 µM	> 10 µM	> 10 µM
C=C1C[C@@H](OC(C)=O)/C=C(\C)C[C@@H]2OC(=O)C(=C)[C@H]2C[C@@H]1OO	> 10 µM	10 µM	> 10 µM
C=C1C[C@@H](OC(C)=O)/C=C(\C)C[C@@H]2OC(=O)C(=C)[C@H]2C[C@@H]1OC(C)=O	> 10 µM	> 10 µM	> 10 µM
C=C1C(=O)O[C@@H]2CC(=C)[C@@H]3CC[C@@](C)(O)[C@@H]3C[C@H]12	> 10 µM	> 10 µM	> 10 µM
CNC(=O)c1cc(Oc2ccc(NC(=O)Nc3ccc(Cl)c(C(F)(F)F)c3)cc2)ccn1 [SORAFENIB]	8 µM	10.1 µM	> 10 µM
C=C1C[C@@H](OC(C)=O)/C=C(\C)C[C@@H]2OC(=O)C(=C)[C@H]2C[C@H]1O	> 10 µM	> 10 µM	> 10 µM
C=C1C[C@@H]2OC(=O)C(=C)[C@H]2C[C@@H]2[C@@H]1[C@H](OC(C)=O)C[C@@]2(C)O	> 10 µM	> 10 µM	> 10 µM
C=C1C[C@H]2OC(=O)C(=C)[C@H]2C[C@@H](O)C(=C)CCC1=O	> 10 µM	> 10 µM	> 10 µM
C=C1C(=O)O[C@H]2C/C(C)=C/[C@H](OC(C)=O)CC(=C)[C@@H](O)C[C@H]12	> 10 µM	> 10 µM	> 10 µM
C=C1C(=O)O[C@@H]2C[C@]3(C)[C@@H](CCC(C)=O)[C@@H]3C[C@H]12	> 7.4 µM	7.8 µM	> 10 µM
C=C1C(=O)O[C@H]2C/C(C)=C/[C@H](OC(C)=O)C[C@@]3(CO3)C(=O)C[C@H]12	8.6 µM	8.8 µM	> 10 µM
C=C1C(=O)O[C@H]2C[C@@]3(C)[C@H](O)CCC(=C)[C@]3(OO)C[C@H]12	> 10 µM	> 10 µM	> 10 µM
C=C1C(=O)O[C@@H]2C[C@]3(C)O[C@H](C[C@H]12)C(=C)CC[C@@H]3O	> 10 µM	> 10 µM	> 10 µM
C=C1C(=O)O[C@@H]2C[C@H](C)[C@]3(/C=C/C(C)=O)O[C@@H]3C[C@H]12	> 10 µM	8.2 µM	> 10 µM
